# From patent publication US20180312493A1, “Antibiotic Compounds, Pharmaceutical Formulations Thereof And Methods And Uses Therefor” (Simon Fraser University, priority 2015, published 2018)
# Where two headings read alike, the source gives them in different places.
# Legend:
# S. aureus (ATCC29213) = assay: In vitro susceptibility, broth microdilution (MIC); assay type: cell-based; details: Staphylococcus aureus
# Outline: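 CLSI 2-fold serial broth microdilution; K. pneumoniae C238 grown in L-broth, S. aureus ATCC 29213 in Mueller Hinton broth, plates incubated 18–24 h at 37 °C. MIC taken as lowest concentration giving complete growth inhibition by OD600 versus compound-free wells, background-subtracted.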
# MRSA Pyk = target: T1, MRSA Pyk (Staphylococcus aureus, UniProt Q6GG09); assay: MRSA pyruvate kinase (PK) activity, continuous LDH-coupled assay; assay type: biochemical, methicillin resistant S. aureus (MRSA252)
# T1 construct: made in house; host or cells: E. coli BL-21 (DE3)
# Outline: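 His-tagged MRSA PK (strain Sanger 252) and human PK isoforms expressed in E. coli BL-21 (DE3) and Ni-NTA purified, used at 15 nM in an LDH-coupled assay following NADH oxidation at 340 nm, 30° C, up to 5 min, ≤1% DMSO. IC50 from four-parameter variable-slope fit; Ki with PEP 2-20 mM, ADP fixed 2 mM, inhibitor 0-400 nM.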
# [1] = S. aureus ATCC29213, 18-24 h, 37 C, read-out: Antimicrobial activity (MIC) S. aureus ATCC29213
# T1 sequence (Q6GG09 whole entry): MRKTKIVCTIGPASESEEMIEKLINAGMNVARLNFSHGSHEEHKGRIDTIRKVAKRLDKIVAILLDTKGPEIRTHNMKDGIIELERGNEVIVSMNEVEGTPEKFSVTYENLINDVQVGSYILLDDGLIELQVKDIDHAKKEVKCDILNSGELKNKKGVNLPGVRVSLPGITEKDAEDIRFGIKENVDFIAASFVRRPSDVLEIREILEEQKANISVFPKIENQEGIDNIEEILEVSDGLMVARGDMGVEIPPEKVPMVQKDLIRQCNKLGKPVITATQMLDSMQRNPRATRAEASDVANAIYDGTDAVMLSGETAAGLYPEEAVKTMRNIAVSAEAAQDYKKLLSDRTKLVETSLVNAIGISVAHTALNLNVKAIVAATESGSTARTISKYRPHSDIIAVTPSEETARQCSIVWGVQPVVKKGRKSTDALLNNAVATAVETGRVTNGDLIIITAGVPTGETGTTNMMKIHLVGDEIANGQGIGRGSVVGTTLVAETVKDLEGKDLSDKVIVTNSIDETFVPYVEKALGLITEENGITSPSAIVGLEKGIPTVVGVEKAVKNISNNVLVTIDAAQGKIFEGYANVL
SMILES,MIC (S. aureus (ATCC29213); [1]),IC50 (MRSA Pyk),"MIC (S. aureus (ATCC29213); ATCC29213, read-out: Antimicrobial activity (MIC) S. aureus ATCC29213)"
"N[C@@H](CCCCNC(=O)c1c(/C=C/c2ccc(Cl)cc2)[nH]c2cc(Br)ccc12)C(=O)O [Compound 54, (S,E)-2-Amino-6-(6-bromo-2-(4-chlorostyryl)-1H-indole-3-carboxamido)hexanoic Acid]",> 64 µg/mL,< 100 nM,
"O=C(NCCN1CCN(C(=O)CCC(=O)N2CCN(CCNC(=O)c3c(/C=C/c4ccc(Cl)cc4)[nH]c4cc(Br)ccc34)CC2)CC1)c1c(/C=C/c2ccc(Cl)cc2)[nH]c2cc(Br)ccc12 [Compound 55, (E)-N,N′-((4,4′-succinylbis(piperazine-4,1-diyl))bis(ethane-2,1-diyl))bis(6-bromo-2-((E)-4-chlorostyryl)-1H-indole-3-carboxamide)]",> 64 µg/mL,> 1000 nM,
"O=C(NCCN1CCN(C(=O)CO)CC1)c1c(/C=C/c2ccc(Cl)cc2)[nH]c2cc(Br)ccc12 [Compound 58, (E)-6-Bromo-2-(4-chlorostyryl)-N-(2-(4-(2-hydroxyacetyl)piperazin-1-yl)ethyl)-1H-indole-3-carboxamide]",> 64 µg/mL,< 100 nM,
"O=C(O)CCC(=O)N1CCN(CCNC(=O)c2c(/C=C/c3ccc(Cl)cc3)[nH]c3cc(Br)ccc23)CC1 [Compound 59, (E)-4-(4-(2-(6-Bromo-2-(4-chlorostyryl)-1H-indole-3-carboxamido)ethyl)piperazin-1-yl)-4-oxobutanoic Acid]",> 64 µg/mL,100 to 1000 nM,
"O=C(OCCN1CCOCC1)c1c(/C=C/c2ccc(Cl)cc2)[nH]c2cc(Br)ccc12 [Compound 62, 2-Morpholinoethyl (E)-6-bromo-2-(4-chlorostyryl)-1H-indole-3-carboxylate]",> 64 µg/mL,100 to 1000 nM,
"O=C(NCc1ccccc1)c1cc(Br)cc2[nH]c(/C=C/c3ccc(Cl)cc3)cc12 [Compound 63, (E)-N-Benzyl-6-bromo-2-(4-chlorostyryl)-1H-indole-4-carboxamide]",> 64 µg/mL,100 to 1000 nM,
"CN(C)C(=O)c1cc(Br)cc2[nH]c(/C=C/c3ccc(Cl)cc3)cc12 [Compound 64, (E)-6-Bromo-2-(4-chlorostyryl)-N,N-dimethyl-1H-indole-4-carboxamide]",> 64 µg/mL,< 100 nM,
"FC(F)(F)c1c(/C=C/c2ccc(Cl)cc2)[nH]c2cc(Br)ccc12 [Compound 65, (E)-6-Bromo-2-(4-chlorostyryl)-3-(trifluoromethyl)-1H-indole]",1 µg/mL,< 100 nM,
"FC(F)(F)c1c(CCc2ccc(Cl)cc2)[nH]c2cc(Br)ccc12 [Compound 66, 6-Bromo-2-(4-chlorophenethyl)-3-(trifluoromethyl)-1H-indole]",2 µg/mL,100 to 1000 nM,
"N#Cc1c(/C=C/c2ccc(Cl)cc2)[nH]c2cc(Br)ccc12 [Compound 67, (E)-6-Bromo-2-(4-chlorostyryl)-1H-indole-3-carbonitrile]",> 64 µg/mL,> 1000 nM,
"NC(=NO)c1c(/C=C/c2ccc(Cl)cc2)[nH]c2cc(Br)ccc12 [Compound 68, 6-Bromo-2-((E)-4-chlorostyryl)-N′-hydroxy-1H-indole-3-carboximidamide]",8 µg/mL,< 100 nM,
"Clc1ccc(/C=C/c2[nH]c3cc(Br)ccc3c2-c2nn[nH]n2)cc1 [Compound 69, (E)-6-Bromo-2-(4-chlorostyryl)-3-(2H-tetrazol-5-yl)-1H-indole]",16 µg/mL,< 100 nM,
"NS(=O)(=O)c1c(CCc2ccc(Cl)cc2)[nH]c2cc(Br)ccc12 [Compound 70, 6-Bromo-2-(4-chlorophenethyl)-1H-indole-3-sulfonamide]",> 64 µg/mL,> 1000 nM,
O=C(c1c(-c2cc3ccccc3s2)[nH]c2cc(Br)ccc12)N1CCOCC1 [Compound 75],> 64 µg/mL,> 1000 nM,
"O=C(c1c(-c2cc3ccccc3[nH]2)[nH]c2cc(Br)ccc12)N1CCOCC1 [Compound 76, (6-Bromo-1H,1′H-[2,2′-biindol]-3-yl)(morpholino)methanone]",> 64 µg/mL,> 1000 nM,
"CC(C)(C)OC(=O)N1CCN(CCNC(=O)c2c(C(=O)Nc3ccc(Cl)cc3)[nH]c3cc(Br)ccc23)CC1 [Compound 78, tert-Butyl 4-(2-(6-bromo-2-((4-chlorophenyl)carbamoyl)-1H-indole-3-carboxamido)ethyl)piperazine-1-carboxylate]",> 64 µg/mL,< 100 nM,
"CN1CCN(CCNC(=O)c2c(C(=O)Nc3ccc(Cl)cc3)[nH]c3cc(Br)ccc23)CC1 [Compound 79, 6-Bromo-N2-(4-chlorophenyl)-N3-(2-(4-methylpiperazin-1-yl)ethyl)-1 H-indole-2,3-dicarboxamide]",> 64 µg/mL,< 100 nM,
"O=C(Nc1ccc(Cl)cc1)c1[nH]c2cc(Br)ccc2c1C(=O)NCCN1CCNCC1 [Compound 80, 6-Bromo-N2-(4-chlorophenyl)-N3-(2-(piperazin-1-yl)ethyl)-1H-indole-2,3-dicarboxamide]",> 64 µg/mL,< 100 nM,
"CN(C)CCNC(=O)c1c(C(=O)Nc2ccc(Cl)cc2)[nH]c2cc(Br)ccc12 [Compound 81, 6-Bromo-N2-(4-chlorophenyl)-N3-(2-(dimethylamino)ethyl)-1H-indole-2,3-dicarboxamide]",> 64 µg/mL,< 100 nM,
"CN(C)CCOC(=O)c1c(C(=O)Nc2ccc(Cl)cc2)[nH]c2cc(Br)ccc12 [Compound 82, 2-(Dimethylamino)ethyl 6-bromo-2-((4-chlorophenyl)carbamoyl)-1 H-indole-3-carboxylate]",> 64 µg/mL,< 100 nM,
"O=C(O)C(=O)c1c(/C=C/c2ccc(Cl)cc2)[nH]c2cc(Br)ccc12 [Compound 85, (E)-2-(6-bromo-2-(4-chlorostyryl)-1H-indol-3-yl)-2-oxoacetic Acid]",> 64 µg/mL,100 to 1000 nM,
"NC(=O)[C@@H]1CCCN1CCCCNC(=O)c1c(-c2cc3cc(Cl)ccc3[nH]2)[nH]c2cc(Br)ccc12 [Compound 116, (S)-6-Bromo-N-(4-(2-carbamoylpyrrolidin-1-yl)butyl)-5′-chloro-1H,1′H-[2,2′-biindole]-3-carboxamide]",> 64 µg/mL,< 100 nM,
"CC(C)(C)OC(=O)COc1cc2[nH]c(-c3cc4ccc(Br)cc4[nH]3)cc2cc1Cl [Compound 186, tert-Butyl 2-((6′-bromo-5-chloro-1H,1′H-[2,2′-biindol]-6-yl)oxy)acetate]",> 64 µg/mL,< 100 nM,
"O=C(O)COc1cc2[nH]c(-c3cc4ccc(Br)cc4[nH]3)cc2cc1Cl [Compound 187, 2-((6′-Bromo-5-chloro-1H,1′H-[2,2′-biindol]-6-yl)oxy)acetic Acid]",64 µg/mL,< 100 nM,
"CS(=O)(=O)OCCOc1cc2[nH]c(-c3cc4ccc(Br)cc4[nH]3)cc2cc1Cl [Compound 198, 2-((6′-Bromo-5-chloro-1H,1′H-[2,2′-biindol]-6-yl)oxy)ethyl Methanesulfonate]",,< 100 nM,> 64 µg/mL
"O=C(NCCN1CCN[C@H](C(=O)O)C1)c1c(-c2cc3cc(Cl)ccc3[nH]2)[nH]c2cc(Br)ccc12 [Compound 229, (S)-4-(2-(6-bromo-5′-chloro-1H,1′H-[2,2′-biindole]-3-carboxamido)ethyl)piperazine-2-carboxylic Acid]",> 64 µg/mL,< 100 nM,
